Measured values from the SangsterLogP compilation.

Row | logP | SMILES
1 | 4.97 | CC1=C(C(=O)O)N2C(=O)C(NC(=O)C(NC(=O)c3nn(-c4ccc(Cl)cc4Cl)c(=O)[nH]c3=O)c3ccccc3)C2SC1 (centres undefined)
2 | 1.26 | CC1=C(C(=O)O)N2C(=O)[C@@H](NC(=O)[C@H](NC(=O)c3nn(-c4ccccc4)c(=O)[nH]c3=O)c3ccc(O)cc3)[C@H]2SC1
3 | 2.53 | CC1=C(C(=O)O)N2C(=O)C(NC(=O)C(NC(=O)c3nn(-c4ccc(C)cc4)c(=O)[nH]c3=O)c3cccc(O)c3)C2SC1 (centres undefined)
4 | 4.91 | CC1=C(C(=O)O)N2C(=O)C(NC(=O)C(NC(=O)c3nn(-c4ccc(Cl)cc4)c(=O)[nH]c3=O)c3ccccc3)C2SC1 (centres undefined)
5 | 3.1 | CC1=C(C(=O)O)N2C(=O)C(NC(=O)C(NC(=O)c3nn(-c4ccc(F)c(Cl)c4)c(=O)[nH]c3=O)c3ccc(O)cc3)C2SC1 (centres undefined)
6 | -0.04 | CC(=O)c1ccc(-n2nc(C(=O)NC(C(=O)NC3C(=O)N4C(C(=O)O)=C(C)CSC34)c3cccc(O)c3)c(=O)[nH]c2=O)cc1 (centres undefined)
7 | 3.08 | CC1=C(C(=O)O)N2C(=O)C(NC(=O)C(NC(=O)c3nn(-c4ccc(Cl)cc4Cl)c(=O)[nH]c3=O)c3ccc(O)cc3)C2SC1 (centres undefined)

Further lines, the molecule ahead of its results:

Row | SMILES | logP
8 | COc1ccc(-n2nc(C(=O)NC(C(=O)NC3C(=O)N4C(C(=O)O)=C(C)CSC34)c3ccccc3)c(=O)[nH]c2=O)cc1 (centres undefined) | 3.87
9 | CC1=C(C(=O)O)N2C(=O)C(NC(=O)C(NC(=O)c3nn(-c4ccc(C)cc4)c(=O)[nH]c3=O)c3ccccc3)C2SC1 (centres undefined) | 4.8
10 | CC1=C(C(=O)O)N2C(=O)C(NC(=O)C(NC(=O)c3nn(-c4ccccc4)c(=O)[nH]c3=O)c3ccccc3)C2SC1 (centres undefined) | 3.19
11 | CC1=C(C(=O)O)N2C(=O)C(NC(NC(=O)c3nn(-c4ccc(S(N)(=O)=O)cc4)c(=O)[nH]c3=O)c3ccc(O)cc3)C2SC1 (centres undefined) | -0.39
12 | CC(=O)c1ccc(-n2nc(C(=O)NC(C(=O)NC3C(=O)N4C(C(=O)O)=C(C)CSC34)c3ccccc3)c(=O)[nH]c2=O)cc1 (centres undefined) | 2.71
13 | CCOc1ccc(-n2nc(C(=O)NC(C(=O)NC3C(=O)N4C(C(=O)O)=C(C)CSC34)c3ccccc3)c(=O)[nH]c2=O)cc1 (centres undefined) | 5.16
14 | CC1=C(C(=O)O)N2C(=O)C(NC(=O)C(NC(=O)c3nn(-c4ccc([N+](=O)[O-])cc4)c(=O)[nH]c3=O)c3ccccc3)C2SC1 (centres undefined) | 3.15
